Test [1] concerns RF strain of HIV (CEM-SS cells). Put plainly: Cell Culture Anti-HIV Activity (cell viability, formazan). Type of test: cell-based. The conditions noted are these: Human immunodeficiency virus 1, CEM-SS, 144 h, CEM-SS cells, RF strain of HIV, multiplicity of infection 0.04, 6 days at 37° C., 450 nm; read-out: HIV (CEM Cells) IC50. Put shortly:
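CEM-SS cells (5000/well) infected with HIV RF at MOI 0.04, exposed to half-log serial compound dilutions, incubated 6 days at 37° C. Viability read by tetrazolium reduction to formazan, absorbance 450 nm. IC50 is the concentration raising formazan in infected cells to 50% of uninfected, drug-free cells.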

A further test deals with T1, HIV protease (Human immunodeficiency virus type 1 group M subtype B, UniProt P04585).
T1 construct: and purified protease
Put plainly: HIV Protease Assay. Type of test: biochemical. The settings on record: pH 5.5, 10 μM inhibitor, 4% DMSO, 450 μM substrate, pH 5.5, 30 minutes at 37° C., RP-HPLC; read-out: HIV Protease % Inhibition at 10 μM. Put shortly: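 Purified protease cleaved 450 μM octapeptide substrate in 50 mM sodium acetate pH 5.5 with 100 μg/ml BSA for 30 minutes at 37° C; product analyzed by reverse-phase HPLC at UV220 after H3PO4 quench. Inhibitors tested at final 10 μM with 4% DMSO.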

Where only a bound is given, the exact number is not on record here.

Consider `CC(C)[C@H](NC(=O)OCC1=Cc2ccccc2C1)C(=O)N[C@@H](Cc1ccccc1)[C@H](O)CNC[C@@H](O)[C@H](Cc1ccccc1)NC(=O)OC(C)(C)C` (relative stereo) [Compound 280, [1R*, 2S* (2S*, 3R*)]-N-[3-[[3-[[(1,1-Dimethylethoxy)carbonyl]amino]-2-hydroxy-4-phenylbutyl]amino]-2-hydroxy-1-(phenylmethyl)propyl]-N^2-[[(1H-inden-2-yl)methoxy]carbonyl]-L-valinamide], for which the IC50 (in general, the midpoint of a concentration-inhibition curve) in test [1] stood at 50 nM. Moreover, the inhibition (usually the relative decrease from the control value, in per cent) at 10 µM on HIV protease amounted to 100%.
For `CC(C)(C)OC(=O)N[C@@H](Cc1ccccc1)[C@H](O)CNC[C@@H](O)[C@H](Cc1c[nH]c2ccccc12)NC(=O)OC(C)(C)C` [Compound 23, [1S-[1R*,2S*(2S*,3R*)]]-[3-[[3-[[(1,1-Dimethylethoxy)carbonyl]amino]-2-hydroxy-4-(1H-indol-3-ylmethyl)butyl]amino]-2-hydroxy-1-(phenylmethyl)propyl]carbamic acid, 1,1-dimethylethyl ester] the same measures were 450 nM and 98%.
For the compound `CC(C)(C)OC(=O)N[C@@H](Cc1ccccc1)[C@H](O)CNC[C@@H](O)[C@H](Cc1ccc(O)cc1)NC(=O)OC(C)(C)C` [Compound 21, [1S-[1R*,2S*(2S*,3R*)]]-3-[[3-[[(1,1-Dimethylethoxy)carbonyl]amino]-2-hydroxy-4-(4-hydroxyphenyl)butyl]amino]-2-hydroxy-1-(phenylmethyl)propyl]carbamic acid, 1,1-dimethylethyl ester], in test [1], the IC50 is 90 nM. For the same compound, the inhibition at 10 µM on HIV protease was found to be 99%.
The corresponding values for `O=C(N[C@@H](Cc1ccccc1)[C@H](O)CNC[C@@H](O)[C@H](Cc1ccccc1)NC(=O)OCc1ccccc1)OCc1ccccc1` [Compound 44, [R-(R*,S*)]-Iminobis[2-hydroxy-1-(phenylmethyl)-3,1-propandiyl]]biscarbamic acid, bis(phenylmethyl) ester] are more than 5000 nM and 58%.
For the compound `CN(C)C(=O)N[C@H](C(=O)N[C@@H](Cc1ccccc1)[C@H](O)CNC[C@@H](O)[C@H](Cc1ccccc1)NC(=O)OC(C)(C)C)C(C)(C)C` (relative stereo) [Compound 305, [1R*,2S* (2S*,3R*)]-N-[3-[[3-[[(1,1Dimethylethoxy)carbonyl]amino]-2-hydroxy-4-phenylbutyl]amino]-2-hydroxy-1-(phenylmethyl)propyl]-N^2-[(dimethylamino)carbonyl)-3-methyl-L-valinamide], the IC50 in test [1] turned out to be 200 nM. Also, the inhibition at 10 µM on HIV protease is 100%.
For `CC(C)[C@H](NC(=O)CCc1nc2ccccc2[nH]1)C(=O)N[C@@H](Cc1ccccc1)[C@H](O)CNC[C@@H](O)[C@H](Cc1ccccc1)NC(=O)OC(C)(C)C` [Compound 103, [S-[1R*,2S*(2S*,3R*)]-N^2-[3-(1H-Benzimidazol-2-yl)-1-oxo-propyl]-N-[3-[[3-[[(1,1-di-methylethoxy)carbonyl]amino-4-phenylbutyl]amino]-2-hydroxy-1-(phenylmethyl)propyl]-L-valinamide], in test [1], the IC50 came out at 1700 nM. For the same compound, the inhibition at 10 µM on HIV protease is 98%.
As for `CC(C)(C)OC(=O)N1Cc2ccccc2CC1C(O)CNCC(O)C1Cc2ccccc2CN1C(=O)OC(C)(C)C` (stereo not drawn) [Compound 11, [R-(R*,R*)]-3,3'[Iminobis(1-hydroxy-2,1-ethanediyl)]-bis[2(1H)-isoquinolinecarboxylic acid], bis(1,1-dimethylethyl) ester], in test [1], the IC50 was more than 6000 nM. Besides, the inhibition at 10 µM at HIV protease turned out to be 0%.
For `CC(C)[C@@H](C(=O)N[C@@H](Cc1ccccc1)[C@H](O)CNC[C@@H](O)[C@H](Cc1ccccc1)NC(=O)OC(C)(C)C)N(C)C(=O)OCc1ccccc1` [Compound 66, [S-[1R*,2S*(2S*,3R*)]]-N-[3-[[3-[(1,1-Dimethylethoxy)carbonyl)amino]-2-hydroxy-4-[phenylbutyl]amino]-2-hydroxy-1-(phenylmethyl)propyl]-N^2-methyl-N^2 [(phenylmethoxy)-carbonyl]-L-valinamide] the same measures were 270 nM and 99%.
For `CC(C)(C)OC(=O)N[C@@H](Cc1ccccc1)[C@H](O)CNC[C@@H](O)[C@H](Cc1ccc(O)cc1)NC(=O)OC(C)(C)CO` [Compound 233, [1S-[1R*,2S*(2S*,3R*)]]-[3-[[3-[[(1,1-Dimethylethoxy)carbonyl]amino]-2-hydroxy-4-(4-hydroxyphenyl)butyl]amino]-2-hydroxy-1-(phenylmethyl)propyl]carbamic acid,2-hydroxy-1,1-dimethylethyl ester] the same measures were 1000 nM and 100%.
For `CC(C)[C@H](NC(=O)OC[C@H](O)CO)C(=O)N[C@@H](Cc1ccccc1)[C@H](O)CNC[C@@H](O)[C@H](Cc1ccccc1)NC(=O)OC(C)(C)C` (relative stereo) [Compound 219, [[1R*,2S*(2S*,3R*)],N^2-(S*)]-N^2-[(2,3-Dihydroxypropoxy)carbonyl]-N-[3-[[3-[[(1,1-dimethylethoxy)carbonyl]-amino]-2-hydroxy-4-phenylbutyl]amino]-2-hydroxy-1-(phenylmethyl)propyl]-L-valinamide] the same measures were 35000 nM and 86%.
As to `CC(C)[C@H](NC(=O)c1ccc2ccccc2c1)C(=O)N[C@@H](Cc1ccccc1)[C@H](O)CNC[C@@H](O)[C@H](Cc1ccccc1)NC(=O)OC(C)(C)C` [Compound 79, [S-[1R*,2S*(2S*,3R*)]]-N-[3-[[3-[[(1,1-Dimethylethoxy)carbonyl]amino]-2-hydroxy-4-phenylbutyl]amino]-2-hydroxy-1-(phenylmethyl)propyl]-N^2 (2-naphthalenylcarbonyl)-L-valinamide], the IC50 in test [1] came out at 400 nM. For the same compound, the inhibition at 10 µM on HIV protease is 99%.
With `CC(C)[C@H](NC(=O)c1nc2ccccc2[nH]1)C(=O)N[C@@H](Cc1ccccc1)[C@H](O)CNC[C@@H](O)[C@H](Cc1ccccc1)NC(=O)OC(C)(C)C` [Compound 101, [S-[1R*,2S*(2S*,3R*)]-N-[3-[[3-[[(1,1-Dimethylethoxy)carbonyl]amino]-2-hydroxy-4-phenylbutyl]amino]-2-hydroxy-1-(phenylmethyl)propyl]-N^2-[(1H-benzimidazol-2-yl)-carbonyl]-L-valinamide]], in test [1], the IC50 worked out at 140 nM. The inhibition at 10 µM on HIV protease was 99%.
Regarding `CC(C)(C)OC(=O)N[C@@H](Cc1ccccc1)C(=O)N[C@@H](Cc1ccccc1)[C@H](O)CNC[C@@H](O)[C@H](Cc1ccccc1)NC(=O)[C@H](Cc1ccccc1)NC(=O)OC(C)(C)C` [Compound 38, [S-(1R*,2S*)]-[Iminobis[2-hydroxy-1-(phenylmethyl)-3,1-propanediyl]]-bisimino-bis[N^2-[(1,1-dimethylethoxy)carbonyl]-L-phenyl-alaninamide]], the IC50 in test [1] is more than 4000 nM. Further, the inhibition at 10 µM on HIV protease is 3%.
The corresponding values for `CC(C)(C)OC(=O)N[C@@H](Cc1ccccc1)[C@H](O)CNC[C@@H](O)[C@H](Cc1ccc(OCCCN2CCOCC2)cc1)NC(=O)OC(C)(C)C` [Compound 201, [1S-[1R*,2S*(2S*,3R*)]]-[3-[[3-[[(1,1-Dimethylethoxy)carbonyl]aminol-2-hydroxy-4-[4-[3-(4-morpholinyl)propoxy]phenyl]butyl]amino]-2-hydroxy-1-(phenylmethyl)propyl]carbamic acid, 1,1-dimethylethyl ester] are 40 nM and 99%.
